Literature values in article PMC11345828 (Journal of Medicinal Chemistry, 2024).

Settings: mouse, in vivo; cited from earlier work

## Cc1c(-c2c(-c3ccc(F)o3)sc3ncnc(O[C@H](Cc4ccccc4OCc4ccnn4CC(F)(F)F)C(=O)O)c23)ccc(OCCN2CCN(C)CC2)c1Cl [Compound S63845]
  maximum tolerated dose lower than in wild-type mice: ~3 fold
